Reference: article PMC9000427, “Synthesis and Anti-Trypanosoma cruzi Biological Evaluation of Novel 2-Nitropyrrole Derivatives” (Molecules, 2022)
Where “and” joins values, the source holds several entries; their conditions need not be identical. Identical values can stand only once. Like-named read-outs stand apart in the source and are kept apart here.

How the values were obtained:
[1] = system: T. cruzi X10/7 intracellular amastigotes; test: T. cruzi intracellular assay (infected Vero cells, high-content imaging); assay type: cell-based, Trypanosoma cruzi
Description: The infected Vero cells were then plated into 384-well plates containing the compounds to be tested, at 4000 cells per well in MEM media with 1% FCS. […] The plates were imaged on a Perkin Elmer Operetta high-content imaging system using a 20× objective. Images were analysed using the Columbus system (Perkin Elmer).

Vero host cells = test: Cytotoxicity against Vero host cells in the T. cruzi intracellular assay; assay type: cell-based; conditions: Chlorocebus sabaeus
Description: (§1) These new derivatives were evaluated in vitro against the intracellular T. cruzi strain X10/7-Silvio by determining their 50% efficacy concentration (EC50) and were compared to the reference anti-T. cruzi drug nifurtimox. The in vitro 50% cytotoxic concentrations (CC50) were assessed on the CHO cell line and compared to a cytotoxic reference drug, doxorubicin. In vitro cytotoxicity against vero host cells was also assessed (vero cells EC50).
Vero cells (ECCAC 84113001) were screened for mycoplasma infection and maintained in MEM medium supplemented with Glutamax (Life Technologies) and 10% (v/v) foetal calf serum (FCS) at 37 °C in the presence of 5% CO2. T. cruzi parasites (Silvio X10/7 A1), a clonal line kindly provided by Susan Wyllie and Prof. Alan Fairlamb were maintained in Vero cells. On a weekly basis, emerged trypomastigotes were used to infect a new Vero monolayer at the multiplicity of infection (MOI) 1.5 [32].
For the primary intracellular assay, the infection conditions were chosen so that no trypomastigote egress occurs during the compound incubation time. First, Vero cells were infected overnight with tissue culture-derived T. cruzi trypomastigotes in T225 tissue culture flasks (MOI 5).
Next, any remaining free trypomastigotes were washed away with serum-free MEM, and the infected Vero cells were harvested by trypsinisation. The infected Vero cells were then plated into 384-well plates containing the compounds to be tested, at 4000 cells per well in MEM media with 1% FCS. After 96h incubation at 37 °C in the presence of 5% CO2, the plates were fixed with 4% formaldehyde for 20 min at room temperature and stained with 5μg/mL Hoechst 33342. The plates were imaged on a Perkin Elmer Operetta high-content imaging system using a 20× objective. Images were analysed using the Columbus system (Perkin Elmer). The algorithm for the primary assay first identified the Vero nuclei followed by the demarcation of the cytoplasm and identification of intracellular amastigotes. This algorithm reported the mean number of parasites per Vero cell and the total number of Vero cells. The data analysis was as previously described.

in vitro = assay type: cell-based; conditions: Chinese hamster, CC50 CHO
Description: as §1
The toxicity of compounds towards Chinese hamster ovary cells (CHO-K1, ATCC CCL61) was evaluated by the NRU toxicity test, based on the concentration-dependent reduction of the uptake of the vital dye neutral red when measured 24 h after chemical treatment. Cells were grown in McCoy’s medium supplemented with Penicillin 100 IU/mL and streptomycin 100 μg/mL, and 10% of inactivated calf serum, and incubated at 37 °C in CO2 5% atmosphere. They were seeded into two 96-well tissue culture plates (0.1 mL per well), at a concentration of 1 × 10^5 cells/mL, and incubated at 37 °C (5% CO2) for 24 h, until confluent. The culture medium was decanted and replaced by 100 µL of fresh medium containing the appropriate concentrations of the compounds (eight different concentrations in triplicate), then cells were incubated at 37 °C (5% CO2) in the dark for 24 h. At the end of the incubation period, cells were washed, placed into neutral red medium (50 μg/mL neutral red in complete medium). This vital dye is a weak cationic dye that penetrates membranes of living cells by […] and accumulates intracellularly in lysosomes. On the contrary, alterations of the cell surface or metabolism result in a decreased uptake and binding of NR in non-viable cells. Cells were incubated for 3 h at 37°C, 5% CO2, and then the culture medium was removed, and cells were washed three times with 0.2 mL of PBS to remove excessive dye. Destaining solution (50% ethanol, 1% acetic acid, 49% distilled water; 50µL per well) was added into the wells, and the plates were shaken for 15–20 min at room temperature in the dark. The degree of cell viability was measured by a fluorescence–luminescence reader. The optical density (OD) of each well was read at 540 nm. The results obtained for wells treated with the test compounds were compared to those of untreated control wells (100% viability) and converted to percentage values. The mean OD value of blank wells (containing only neutral red desorbed solution) was subtracted from the mean OD value of three treated wells (dilutions of the test material, positive control or HBSS). The percentages of cell viability were calculated as:Viability (%) = (Mean OD of test wells-mean OD of blanks) × 100 / (Mean OD of negative control − mean OD of blanks)
The concentration of the test substances causing a 50% release of neutral red as compared to the control culture was calculated by non-linear regression analysis using software Phototox Version 2.0.

[2] = Trypanosoma cruzi, Vero, 96 h, intracellular T. cruzi strain X10/7-Silvio, 96h incubation, mean ± SD of two independent biological replicates, read-out: EC50 T. cruzi
[3] = Vero host cells, 96h incubation, concentrations up to 50 µM, read-out: Vero cells EC50
[4] = intracellular T. cruzi strain X10/7-Silvio, 96h incubation, mean ± SD of two independent biological replicates, read-out: EC50 T. cruzi
[5] = Trypanosoma cruzi, Vero, Replicate 1, dose response curve, read-out: pXC50 intracellular amastigotes (converted)
[6] = Trypanosoma cruzi, Vero, Replicate 2, dose response curve, read-out: pXC50 intracellular amastigotes (converted)
[7] = Replicate 1, inhibition of Vero host cell growth, read-out: C_pXC50 host cells

| SMILES | EC50 [1, 2] [µM] | melting point [°C] | EC50 (Vero host cells; [3]) [µM] | CC50 at 24 h (in vitro) [µM] | further results |
| --- | --- | --- | --- | --- | --- |
| O=C(Cn1cccc1[N+](=O)[O-])NCc1ccccc1 [Compound 3, N-Benzyl-2-(2-nitro-1H-pyrrol-1-yl)acetamide] | 34.5 ± 21.9 | 174 to 175 | 42 ± 11.3 | 24.3 | – |
| O=C(Cn1cccc1[N+](=O)[O-])Nc1ccccc1 [Compound 4, 2-(2-Nitro-1H-pyrrol-1-yl)-N-phenylacetamide] | < 10 | 201 to 202 | 14 | 262 ± 3.9 | EC50 [1, 4]: 6 µM |
| O=C(Cn1cccc1[N+](=O)[O-])NCc1cccc(C(F)(F)F)c1 [Compound 15, 2-(2-Nitro-1H-pyrrol-1-yl)-N-[3-(trifluoromethyl)benzyl]acetamide] | 41 ± 12.7 | 161 to 162 | 43 ± 9.9 | 185 ± 5.1 | – |
| O=C(Cn1cccc1[N+](=O)[O-])Nc1cccc(C(F)(F)F)c1 [Compound 18, 2-(2-Nitro-1H-pyrrol-1-yl)-N-[3-(trifluoromethyl)phenyl]acetamide] | – | – | > 50 | 156 ± 2.9 | maximum effect (percent inhibition of intracellular amastigotes) ([1]; 96h treatment, two independent replicates, normalised to DMSO (0%) and nifurtimox controls (100%)): 71%; Emax ([1]; Trypanosoma cruzi, Vero, 96 h, 96h treatment, two independent replicates, normalised to DMSO (0%) and nifurtimox controls (100%), read-out: maximum effect (percent inhibition of intracellular amastigotes)): 79%; EC50 [1, 5]: 2.29 µM; EC50 [1, 6]: 4.9 µM; EC50 [1, 4]: < 10 µM and 3.6 µM; EC50 (Vero host cells; [7]): > 50.1 µM |
| O=C(Cn1cccc1[N+](=O)[O-])NC1CCCC1 [Compound 21, N-Cyclopentyl-2-(2-nitro-1H-pyrrol-1-yl)acetamide] | – | – | – | 303 ± 6.1 | – |
| COc1cccc2c1C(=O)c1c(O)c3c(c(O)c1C2=O)C[C@@](O)(C(=O)CO)C[C@@H]3O[C@H]1C[C@H](N)[C@H](O)[C@H](C)O1 [Doxorubicin, reference compound] | – | – | – | 4.6 ± 0.08 | – |

Continued, in another order:

| EC50 [1, 2] [µM] | melting point [°C] | SMILES | EC50 (Vero host cells; [3]) [µM] | CC50 at 24 h (in vitro) [µM] | further results |
| --- | --- | --- | --- | --- | --- |
| < 10 | – | O=C(Cn1cccc1[N+](=O)[O-])Nc1ccc(Br)cc1 [Compound 16, N-(4-Bromophenyl)-2-(2-nitro-1H-pyrrol-1-yl)acetamide] | 14.5 ± 0.7 | 173 ± 4.6 | EC50 [1, 4]: 6.5 ± 0.6 µM |
| 50 | – | O=C(Cn1cccc1[N+](=O)[O-])Nc1ccccc1Cl [Compound 17, N-(2-Chlorophenyl)-2-(2-nitro-1H-pyrrol-1-yl)acetamide] | > 50 | 198 ± 5.7 | – |
| 50 | – | COc1cccc(NC(=O)Cn2cccc2[N+](=O)[O-])c1 [Compound 19, N-(3-Methoxyphenyl)-2-(2-nitro-1H-pyrrol-1-yl)acetamide] | > 50 | 260 ± 6.3 | – |
| – | 190 to 191 | CC(C)NC(=O)Cn1cccc1[N+](=O)[O-] [Compound 20, N-Isopropyl-2-(2-nitro-1H-pyrrol-1-yl)acetamide] | – | 321 ± 5.3 | – |
| – | 185 to 186 | O=C(Cn1cccc1[N+](=O)[O-])Nc1cc(F)ccc1Br [Compound 22, N-(2-Bromo-5-fluorophenyl)-2-(2-nitro-1H-pyrrol-1-yl)acetamide] | – | 188 ± 4.4 | – |
| 2.1 ± 0.2 | – | CC1CS(=O)(=O)CCN1/N=C/c1ccc([N+](=O)[O-])o1 (centres unmarked) [Nifurtimox, reference compound] | – | – | EC50 [1, 5]: 2.04 µM; EC50 [1, 6]: 2.04 µM; EC50 (Vero host cells; [7]): > 15.8 µM |
